We go through 1 molecule from publication PMC6934184, “Selective DNA-PKcs inhibition extends the therapeutic index of localized radiotherapy and chemotherapy” (The Journal of Clinical Investigation, 2019).

The experiment concerns the target T1, CAMK2G (CaMKII gamma) (Homo sapiens, UniProt Q13555).
T1 construct: purchased Thermo Fisher Scientific (Life Technologies) SelectScreen
As to the kind of experiment: SelectScreen LanthaScreen. The class given is binding. As to conditions: read-out: % displacement. The procedure, abridged:
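NU5455 was profiled across the SelectScreen Broad panel of kinase activity and binding assays. Z'LYTE reactions such as CSF1R ran at apparent Km ATP, while the Adapta CAMK1 assay used ATP listed as 10. Values are given as percent.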
(Time-resolved FRET reads energy transfer from a long-lived donor to a nearby acceptor.)

T1 sequence (Q13555 whole entry): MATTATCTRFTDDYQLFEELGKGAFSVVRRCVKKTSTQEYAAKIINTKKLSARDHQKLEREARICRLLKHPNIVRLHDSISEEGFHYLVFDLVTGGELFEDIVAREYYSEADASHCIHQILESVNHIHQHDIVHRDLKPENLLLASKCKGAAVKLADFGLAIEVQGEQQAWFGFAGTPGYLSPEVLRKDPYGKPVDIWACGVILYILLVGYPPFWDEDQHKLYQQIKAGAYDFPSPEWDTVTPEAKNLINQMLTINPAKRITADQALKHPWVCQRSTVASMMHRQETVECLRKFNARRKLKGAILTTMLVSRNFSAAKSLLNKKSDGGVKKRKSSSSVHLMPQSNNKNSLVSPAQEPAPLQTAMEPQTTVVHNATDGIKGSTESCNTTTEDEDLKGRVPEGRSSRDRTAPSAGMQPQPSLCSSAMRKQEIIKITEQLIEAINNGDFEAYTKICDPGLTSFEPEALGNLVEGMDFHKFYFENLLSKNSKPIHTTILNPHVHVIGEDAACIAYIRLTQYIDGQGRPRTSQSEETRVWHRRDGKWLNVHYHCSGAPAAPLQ

Take `CN(C(=O)CN1CCOCC1)c1ccc2sc3c(-c4cccc5c(=O)cc(N6CC7CCC(C6)O7)oc45)cccc3c2c1` [NU5455]: the inhibition at 1 µM was -0.8%.
